Reference: patent US20090075915A1, “6,11-BICYCLOLIDES: BRIDGED BIARYL MACROLIDE DERIVATIVES” (priority 2007, published 2009)
In brackets after ≈: the same amount, converted by molar mass. Entries after “also recorded” stand apart in the source; their conditions may differ. Read-outs that look alike come from different tables or passages of the source.

Experiments:
[1] = system: MRSA 33591; assay: MIC, MRSA 33591; assay type: cell-based, Staphylococcus aureus; settings: Staphylococcus aureus, MRSA; Table 5
Experimental: (§1) Susceptibility tests can be used to quantitatively measure the in vitro activity of an antimicrobial agent against a given bacterial isolate. Compounds are tested for in vitro antibacterial activity by a micro-dilution method. Minimal Inhibitory Concentration (MIC) is determined in 96 well microtiter plates utilizing the appropriate broth medium for the observed bacterial isolates. Antimicrobial agents are serially diluted (2-fold) in DMSO to produce a concentration range from about 64 μg/ml to about 0.03 μg/ml. The diluted compounds (2 μl/well) are then transferred into sterile, uninoculated medium (0.2 mL) by use of a 96 fixed tip-pipetting station. The inoculum for each bacterial strain is standardized to approximately 5×10^5 CFU/mL by optical comparison to a 0.5 McFarland turbidity standard. The plates are inoculated with 10 μl/well of adjusted bacterial inoculum. The 96 well plates are covered and incubated at 35±2° C. for 24 hours in ambient air environment. Following incubation, plate wells are visually examined by Optical Density measurement for the presence of growth (turbidity). The lowest concentration of an antimicrobial agent at which no visible growth occurs is defined as the MIC.
(§2) All in vitro testing follows the guidelines described in the Approved Standards M7-A7 protocol, published by the Clinical Laboratory Standards Institute (CLSI).

[2] = system: MRSA 7662; assay: MIC, MRSA 7662; assay type: cell-based; settings: Staphylococcus aureus
Experimental: as §1, §2

[3] = system: H influenzae 33929; assay: MIC, H influenzae 33929; assay type: cell-based, Haemophilus influenzae; settings: Haemophilus influenzae, 33929; Table 5
Experimental: as §1, §2

[4] = system: H influenzae 49247; assay: MIC, H influenzae 49247; assay type: cell-based, Haemophilus influenzae; settings: Haemophilus influenzae, 49247; Table 5
Experimental: as §1, §2

[5] = system: S. aureus Smith; assay: MIC, S. aureus Smith; assay type: cell-based, Staphylococcus aureus
Experimental: as §1, §2

[6] = system: S. aureus Smith; assay: Systemic mouse protection model (MPT), S. aureus Smith; assay type: in vivo; settings: Staphylococcus aureus
[7] = system: S. aureus 7662; assay: Systemic mouse protection model, S. aureus 7662; assay type: in vivo; settings: Staphylococcus aureus, S. aureus 7662, iv
[8] = system: MRSA 7662; assay: Mouse skin and soft tissue infection, MRSA 7662; assay type: in vivo; settings: Staphylococcus aureus
[9] = Tissue accumulation at the site of infection (plasma, skin, skin abscess); settings: for AUC(0-inf) / AUC(0-t) / Cmax / Kp / Tmax / half-life: mouse, po, 50 mg/kg
[10] = system: S. pneumoniae 7701; assay: MIC, S. pneumoniae 7701; assay type: cell-based
Experimental: as §1, §2

[11] = system: H. influenzae 1435; assay: MIC, H. influenzae 1435; assay type: cell-based, Haemophilus influenzae; set-up: unit not given beside the values
Experimental: as §1, §2

[12] = system: H. influenzae S1280; assay: MIC, H. influenzae S1280; assay type: cell-based, Haemophilus influenzae; set-up: unit not given beside the values
Experimental: as §1, §2

[13] = system: H. influenzae 3643; assay: MIC, H. influenzae 3643; assay type: cell-based, Haemophilus influenzae; set-up: unit not given beside the values
Experimental: as §1, §2

[14] = system: S. pneumoniae 7701; assay: Mouse protection test model (MPT), S. pneumoniae 7701; assay type: in vivo; settings: Streptococcus pneumoniae
[15] = system: H. influenzae 1435; assay: Rat lung infection model (RLI), H. influenzae 1435; assay type: in vivo; settings: Haemophilus influenzae, read-out: ED50 (2Log Red for RLI)
[16] = system: H. influenzae S1280; assay: Rat lung infection model (RLI), H. influenzae S1280; assay type: in vivo; settings: Haemophilus influenzae, read-out: ED50 (2Log Red for RLI)
[17] = system: H. influenzae 3643; assay: Rat lung infection model (RLI), H. influenzae 3643; assay type: in vivo; settings: Haemophilus influenzae, read-out: ED50 (2Log Red for RLI)
[18] = Oral pharmacokinetics in mice; assay type: in vivo; settings: 15 mg/kg
[19] = Oral pharmacokinetics in rat; assay type: in vivo; settings: 10 mg/kg
[20] = Oral pharmacokinetics in dog; assay type: in vivo; settings: for Cmax / Tmax / half-life / AUC(0-t): in vivo; for Cmax / Tmax / half-life / AUC(0-t) / CLF / F / Vd: oral, Dog; for AUC(0-t): read-out: AUC0-24
[21] = Oral pharmacokinetics in rat plasma and lung tissue; assay type: in vivo; settings: 10 mg/kg PO; for AUC(0-t): read-out: AUC0-24; for Kp: lung/plasma, po, 10 mg/kg
[22] = In vitro blood incubation of amino acid prodrugs, mouse blood; assay type: in vitro ADME, Mice; settings: 2 μM prodrug
Experimental: (§3) Compounds 5, 6, 7 and 8 (2 μM) were incubated with fresh human blood (conducted in duplicate), rat and mouse blood. Reaction was started by the addition of compound 5, and was stopped at predefined time points (0, 5, 10, 15, 30, 45 and 60 minutes) by removing one aliquot from the incubation mixture (0.1 mL per aliquot) and adding it to 3-fold volume of stop reagent (ice-cold acetonitrile, 0.3 mL). Precipitated protein was removed by centrifugation. Prodrug compound 5-8 and parent compound 1 or 3 concentrations in the supernatant were analyzed by LC/MS/MS.

[23] = In vitro blood incubation of amino acid prodrugs, rat blood; assay type: in vitro ADME; settings: 2 μM prodrug
Experimental: as §3

[24] = In vitro blood incubation of amino acid prodrugs, fresh human blood; assay type: in vitro ADME; settings: 2 μM prodrug
Experimental: as §3

[25] = Rat PK of amino acid prodrug after IV/PO administration; assay type: in vivo
[26] = table of animal models of infection
[27] = plasma, 10 mg/kg IV, prodrug itself measured

CCC(=O)/N=C1\[C@H](C)C[C@@]2(C)OC/C(=N/OCc3ccc(-c4nc(N)cs4)cn3)CO[C@H]([C@H]1C)[C@](C)(O)[C@@H](CC)OC(=O)[C@@](C)(F)C(=O)[C@H](C)[C@H]2O[C@@H]1O[C@H](C)C[C@H](N(C)C)[C@H]1O [Compound 1]
MIC [1]: 2 mg/L (≈ 2.21 µM) | MIC ([2]; S. aureus 7662, table of systemic mouse protection model, read-out: MIC): 1000 mg/L (≈ 1100 µM) | MIC ([2]; Table 5, read-out: MIC MRSA 7662): 1 mg/L (≈ 1.1 µM) | MIC [3]: 4 mg/L (≈ 4.42 µM) | MIC [4]: 4 mg/L (≈ 4.42 µM) | MIC ([5]; Staphylococcus aureus, table of systemic mouse protection model, read-out: MIC): 130 mg/L (≈ 144 µM) | ED50 ([6]; systemic mouse protection model, iv): 4.8 mg/kg | ED50 ([6]; systemic mouse protection model, po): 13.3 mg/kg | ED50 [7]: 3.6 mg/kg | ED50 ([8]; MRSA 7662, iv): 12 mg/kg | ED50 ([8]; MRSA 7662, po): 29 mg/kg | Accumulation at the site of infection ([9]; infected skin tissue of mice): highly accumulated at the site of infections in infected skin tissue of mice | AUC(0-inf) ([9]; infected skin abscess): 617 µg·h/mL | AUC(0-t) ([9]; infected skin abscess): 257 µg·h/mL | Cmax ([9]; infected skin abscess): 9.03 µg/mL | Kp ([9]; infected skin abscess): 25.2 | Tmax ([9]; infected skin abscess): 3 h | half-life ([9]; infected skin abscess): 52.4 h | AUC(0-inf) ([9]; plasma): 24.5 µg·h/mL | AUC(0-t) ([9]; plasma): 24.4 µg·h/mL | Cmax ([9]; plasma): 5.12 µg/mL | Tmax ([9]; plasma): 0.5 h | half-life ([9]; plasma): 5.2 h | AUC(0-inf) ([9]; uninfected skin): 66.6 µg·h/mL | AUC(0-t) ([9]; uninfected skin): 54.6 µg·h/mL | Cmax ([9]; uninfected skin): 3.8 µg/mL | Kp ([9]; uninfected skin): 2.72 | Tmax ([9]; uninfected skin): 3 h | half-life ([9]; uninfected skin): 17.9 h

CC[C@H]1OC(=O)[C@H](C)C(=O)[C@H](C)[C@@H](O[C@@H]2O[C@H](C)C[C@H](N(C)C)[C@H]2O)[C@@]2(C)C[C@@H](C)/C(=N\C(C)=O)[C@H](C)[C@@H](OC/C(=N\OCc3ccc(-c4ccno4)nc3)CO2)[C@]1(C)O [Compound 4]
MIC [3]: 4 mg/L (≈ 4.75 µM) | MIC [4]: 4 mg/L (≈ 4.75 µM) | MIC [5, 26]: 0.25 | ED50 ([6]; MPT): 9 mg/kg | MIC [10]: <=0.06 | MIC [11]: 4 | MIC [12]: 8 | MIC [13]: 16 | ED50 [14]: 9 mg/kg | ED50 [15]: 33 mg/kg | ED50 [16]: 46 mg/kg | ED50 [17]: 64 mg/kg | CLF [18]: 1.6 L/h/kg | F [18]: 100% | Vd [18]: 6.8 L/kg | Cmax ([18]; mouse, in vivo): 2.43 µg/mL | Tmax ([18]; mouse, in vivo): 0.5 h | half-life ([18]; mouse, in vivo): 2.4 h | AUC(0-t) ([18]; mouse, in vivo, read-out: AUC0-24): 9.8 µg·h/mL | CLF [19]: 0.64 L/h/kg | F [19]: 87% | Vd [19]: 1.97 L/kg | Cmax ([19]; plasma): 2.54 µg/mL | Tmax ([19]; plasma): 1.7 h | half-life ([19]; plasma): 2.1 h | AUC(0-t) ([19]; plasma, read-out: AUC0-24): 13.9 µg·h/mL | Animal pharmacokinetics properties in dogs ([20]; dogs): low clearance, excellent oral absorption (bioavailability) and AUC | Cmax ([20]; 5 mg/kg): 2.47 µg/mL | Tmax ([20]; 5 mg/kg): 1.3 h | half-life ([20]; 5 mg/kg): 7.3 h | AUC(0-t) ([20]; 5 mg/kg): 32.6 µg·h/mL | Cmax ([20]; 10 mg/kg): 5.04 µg/mL | Tmax ([20]; 10 mg/kg): 6 h | half-life ([20]; 10 mg/kg): 15.8 h | AUC(0-t) ([20]; 10 mg/kg): 84.4 µg·h/mL | CLF ([20]; 5 mg/kg): 0.10 L/h/kg | F ([20]; 5 mg/kg): 71% | Vd ([20]; 5 mg/kg): 1.0 L/kg | CLF ([20]; 10 mg/kg): 0.10 L/h/kg | F ([20]; 10 mg/kg): 100% | Vd ([20]; 10 mg/kg): 1.54 L/kg | Cmax ([21]; Lung): 19 ± 0.08 µg/mL | Tmax ([21]; Lung): 2.33 ± 1.15 h | half-life ([21]; Lung): 2.51 ± 0.1 h | AUC(0-t) ([21]; Lung): 110 ± 12.9 µg·h/mL | Cmax ([21]; Plasma): 2.54 ± 0.08 µg/mL | Tmax ([21]; Plasma): 1.67 ± 1.15 h | half-life ([21]; Plasma): 2.06 ± 0.45 h | AUC(0-t) ([21]; Plasma): 13.9 ± 2.81 µg·h/mL | Kp ([21]; read-out: AUC Lung/Plasma): 8 ± 0.9 | Kp ([21]; read-out: Cmax Lung/plasma): 7.5 ± 1

CCC(=O)/N=C1\[C@H](C)C[C@@]2(C)OC/C(=N/OCc3ccc(-c4nc(NC(=O)[C@@H](N)CC(C)C)cs4)cn3)CO[C@H]([C@H]1C)[C@](C)(O)[C@@H](CC)OC(=O)[C@@](C)(F)C(=O)[C@H](C)[C@H]2O[C@@H]1O[C@H](C)C[C@H](N(C)C)[C@H]1O [Compound 6]
% remaining after 60 min, Mice [22]: 5.6% | % remaining after 60 min, Rat [23]: 9.3% | % remaining after 60 min, Human [24]: 8.3% | ClF ([25]; 10 mg/kg IV, prodrug itself measured): 47.3 L/h/kg | Prodrug in plasma after oral administration ([25]; 10 mg/kg PO, prodrug itself, 10 mg/kg): No prodrug was detected in the plasma; also recorded: None detected in plasma via oral route- | Conversion to the parent amino derivative (Compound 1) ([25]; after oral (po) and IV administration): rapidly converted to the parent amino derivative | AUC(0-inf) [25, 27]: 0.21 µg·h/mL | Cmax [25, 27]: 0.31 µg/mL | Tmax [25, 27]: 4.8 min | Vd [25, 27]: 13.3 L/kg | half-life [25, 27]: 0.2 h

CC[C@H]1OC(=O)[C@H](C)C(=O)[C@H](C)[C@@H](O[C@@H]2O[C@H](C)C[C@H](N(C)C)[C@H]2O)[C@](C)(OC)C[C@@H](C)C(=O)[C@H](C)[C@H]2N(CCCCn3cnc(-c4cccnc4)c3)C(=O)O[C@]12C [Telithromycin, reference compound]
MIC [5, 26]: 0.13 | ED50 ([6]; MPT): 11 mg/kg | MIC [10]: 0.25 | MIC [11]: 2 | MIC [12]: 2 | MIC [13]: 4 | ED50 [14]: 10 mg/kg | ED50 [15]: 49 mg/kg | ED50 [16]: 56 mg/kg | ED50 [17]: 78 mg/kg
